{"source": "patent US12121561B1", "about": "“Composition for treating or preventing insulin resistance” (KING FAISAL UNIVERSITY, priority 2024, dated 2024)", "key": {"NO production": {"system": "NO production", "assay": "NO production with recombinant vWF protein"}, "glucose uptake": {"system": "glucose uptake", "assay": "Glucose uptake with recombinant vWF protein"}}, "data": [{"substance": "recombinant vWF protein: a recombinant vWF protein with a specific vWF sequence (SEQ ID NO: 1) (EPECNDITARLQYVKVGSCKSEVEVDIHYCQGKCASKAMYSIDINDVQDQCSC; listed as Homo sp.)", "values": [{"measurement": "NO production", "setting": "NO production", "value": "significantly inhibit"}, {"measurement": "glucose uptake", "setting": "glucose uptake", "value": "significantly inhibit"}]}]}
